In paper PMC12867150, “A fungi-derived cyclic peptide enhances Th9-mediated antitumor immunity by targeting ZAP70 and SREBP1” (The Journal of Clinical Investigation, 2025):
“And” between values parts separate entries of the source, which are not always exact repeats. Equal values may be shown once.

Test system: endogenous CD8+ T cells
Test: Flow cytometry of endogenous CD8+ T cells in spleen, LN, tumor (Figure 2F-G, S1F-I)
Type: in vivo, mouse
Settings: for Frequencies of endogenous CD8⁺ T cells in LN: Supplemental Figure 1I left; for Number of endogenous CD8⁺ T cells in LN: Supplemental Figure 1I right; for CD8 gate number: representative flow plot
Procedure: C57BL/6 mice were subcutaneously injected with 5 × 10^5 B16-OVA melanoma cells. Five days after tumor implantation, mice received an intravenous infusion of 2 × 10^6 in vitro–differentiated Th9 cells (cultured for 5 days), which were derived from OT-II CD45.1 donor mice, accompanied by 4 × 10^5 OVA peptide–pulsed DCs via the tail vein. To enhance T cell engraftment and facilitate lymphodepletion, a single intraperitoneal injection of cyclophosphamide (200 mg/kg, Sigma, catalog C0768) was administered 1 day prior to T cell transfer. Mice were euthanized at designated time points for the collection and analysis of spleens, tumor-draining lymph nodes, and tumor tissues.
Details regarding staining panels (human and mouse), reagents (including clones and catalog numbers), acquisition settings, compensation/controls, and analysis procedures are provided in Supplemental Methods.
BioLegend, Cat. No. 422301 or Mouse TruStain FcX™, BioLegend, Cat. No. 101319) for 10 minutes at 4°C. For surface marker detection, cells were stained with fluorochrome-conjugated monoclonal antibodies in 96-well V-bottom plates and incubated on ice for 30 minutes. After staining, cells were washed twice and resuspended in FACS buffer for analysis.
Prior to intracellular cytokine staining, cells were restimulated for 4 hours with PMA (Absin, Cat. No. abs9107), ionomycin (Sigma-Aldrich, Cat. No. I0634), and brefeldin A (MedChemExpress, Cat. No. HY-16592). For intracellular cytokine staining, cells were first surface-stained as described above, then fixed and permeabilized using the BD Cytofix/Cytoperm™ kit (BD Biosciences, Cat. No. 554714) according to the manufacturer ’s protocol. Intracellular proteins were stained with directly conjugated antibodies targeting IL-9, IL-17a, IL-4, IFN-γ, TNF-α, FOXP3, p-ZAP70, Perforin, and […]
Antibodies used for mouse samples included those against IL-9 (PE, clone RM9A4, Biolegend, Cat. No. 514104), IFN-γ (PE, clone XMG1.2, Biolegend, Cat. No.
Cat. No. 103138), CD4 (APC/Cy7, clone E-AB-F1353UJ, Elabscience, Cat. No.
AF18028), CD8α (PerCP/Cy5.5, clone E-AB-F1104UJ, Elabscience, Cat. No. […]
clone E-AB-F1187UH, Elabscience, Cat. No. AF19854), TNF-α (BV421, clone MP6-XT22, Biolegend, Cat. No. 506328), FOXP3 (PE, clone FJK-16s, eBioscience, Cat. No.
Perforin (APC, clone S16009A, Biolegend, Cat. No. 154303) and Granzyme B (APC, […]
clone QA16A02, Biolegend, Cat. No. 372203). […]
Figure S1. EpA enhances immune responses. […]
I) Representative flow-cytometric plots of endogenous CD4⁺ and CD8⁺ T cells in spleens (F), LNs (G), and tumors (H); frequencies and absolute numbers of endogenous CD4⁺ (G) and CD8⁺ (I) T cells in LNs are quantified. (J and K) […]
Statistical analysis was performed using two-way ANOVA with Tukey’s post hoc test (A), one-way ANOVA with Tukey’s post hoc test (B) or two-tailed unpaired Student’s t-test (D and G–M). ns, not significant. *p < 0.05, **p < 0.01, ****p < 0.0001.
(also on this page, place not known: Mouse weight (g) CtrlEpA CtrlEpA CtrlEpA0 I CD45.1+ T cells (%) CtrlEpA CD4+ T cells (%) CtrlEpA CtrlEpA CtrlEpA FSC CD8 CD8 FSC FSC FSC BNumber of CD45.1+ T cells (×103 per mgĎ Number of CD4+ T cells (×104 per mgĎ DC (%)NK cells (%) NK cells (%) DC (%) Number of DC (×103 per mg) Number of NK cells (×105) Number of NK cells (×103 per mg) Number of DC (×105) FSC FSC FSC CD8 CtrlEpA CtrlEpA CtrlEpA CD8+ T cells (%) Number of CD8+ T cells (×104 per mgĎ nsns ns nsns ns 40 IL-6 (pg/ml)) […]

[1] = spleens, individual mice, n = 4

anteiso-C15 Leu7 surfactin [EpA]
Frequencies of endogenous CD8⁺ T cells in LN (LN, replicate 1): 31.6 | Frequencies of endogenous CD8⁺ T cells in LN (LN, replicate 2): 27.8 | Frequencies of endogenous CD8⁺ T cells in LN (LN, replicate 3): 36.5 | Frequencies of endogenous CD8⁺ T cells in LN (LN, replicate 4): 27.9 | Number of endogenous CD8⁺ T cells in LN (LN, replicate 1): 49988.9 | Number of endogenous CD8⁺ T cells in LN (LN, replicate 2): 41201.1 | Number of endogenous CD8⁺ T cells in LN (LN, replicate 3): 21505.6 | Number of endogenous CD8⁺ T cells in LN (LN, replicate 4): 20877.6 | CD8 gate number (LN, Figure S1G): 36.5 | CD8 gate number (Spleen, Figure S1F): 34.5 | CD8 gate number (Tumor, Figure S1H): 54.0 | endogenous CD8+ T cell frequency (lymph nodes, result in words): modest frequency increase | endogenous CD8+ T cell total numbers (lymph nodes, result in words): unchanged total numbers | endogenous CD8+ T cell frequency and number (spleens and tumors, result in words): markedly increased in both frequency and absolute number | endogenous CD8 (%) [1]: 30.4% and 27.2% and 30.6% and 34.5% | number of CD8 T cells [1]: 3878238 and 3825743 and 3962312 and 3201124 | endogenous CD8 T cells (%) (tumors, individual mice, n = 4): 54% and 34.7% and 36.8% and 55.2% | number of endogenous CD8 T cells (tumors, individual mice, n = 4): 176 and 424 and 563 and 172
